One assay addresses T1, APC WT (Homo sapiens, UniProt P25054).
T1 sequence (P25054 303-739): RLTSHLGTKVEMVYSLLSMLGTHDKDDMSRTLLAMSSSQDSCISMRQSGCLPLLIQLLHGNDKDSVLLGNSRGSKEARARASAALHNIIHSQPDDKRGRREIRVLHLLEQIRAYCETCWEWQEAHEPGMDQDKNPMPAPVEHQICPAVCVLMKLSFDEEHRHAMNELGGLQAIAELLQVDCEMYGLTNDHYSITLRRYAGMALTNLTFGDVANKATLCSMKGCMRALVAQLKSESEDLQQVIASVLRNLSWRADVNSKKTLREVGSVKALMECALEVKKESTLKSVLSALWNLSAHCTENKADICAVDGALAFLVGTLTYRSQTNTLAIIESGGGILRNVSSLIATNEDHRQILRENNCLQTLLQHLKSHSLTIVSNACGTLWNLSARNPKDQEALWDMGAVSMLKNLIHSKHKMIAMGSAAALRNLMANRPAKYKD
As to the kind of experiment: ITC assay, APC WT. The format is binding. The following applies: 30 °C. How it is done:
(§1) ITC experiments were performed using a MicroCal ITC200 calorimeter (Malvern Panalytical Ltd.). APC protein and peptide inhibitors were diluted with buffer containing 50 mM HEPES pH 7.5, 300 mM NaCl and 1 mM EDTA. The cells were loaded with APC proteins at 10–20 μM. All injections were performed using an initial injection of 0.2 μL followed by 19 injections of 2 μL at 100–200 μM. All measurements were carried out at 30 °C. The data were analyzed using a single-site binding model within MicroCal ITC200 analysis software to generate the stoichiometry (N), enthalpy changes (ΔH), entropy changes (ΔS), and the association constant (K) of binding. The changes in free energy (ΔG) were calculated (ΔG = ΔH-TΔS).
On the technique in general: In ITC the heat of successive injections is recorded.

The target of the next assay is T2, APC W593A (Homo sapiens, UniProt P25054, W593A).
T2 sequence (P25054 303-739 W593A): T1 sequence (P25054 303-739) with W291A
In words: ITC assay, APC W593A mutant. The format is binding. How it is done:
as §1

Substitutions are numbered along the chain they refer to. pKd: −log10 of the molar value. Where a SMILES comes first, the peptide text is derived from it. The star is where a group is joined. Benzoyl(4-OMe) = COc1ccc(C(=O)*)cc1

For the compound `COc1ccc(C(=O)N[C@@H](C)C(=O)NCC(=O)N[C@@H](CCC(=O)O)C(=O)N[C@@H](CO)C(=O)N[C@@H](CC(C)C)C(=O)N[C@@H](Cc2ccc(O)cc2)C(=O)N[C@@H](CCC(=O)O)C(N)=O)cc1` [MAI-516] ({Benzoyl(4-OMe)}-AGESLYE-NH2), at APC WT, the “-TΔS” value was determined as 4.85 kcal/mol, the “L/P ratio (number of sites per APC)” value is reported as 0.97, the ΔG is -11.6 kcal/mol and the ΔH was -16.4 kcal/mol. On APC WT (ITC), this compound had a pKd of 8.36. Further, on APC W593A, the “reduction of binding affinity vs APC WT” value was “approximately 100 fold”. Further, on APC W593A (30 °C), the “-TΔS” value is 2.63 kcal/mol, the L/P ratio is 0.92, the ΔG was -8.87 kcal/mol and the ΔH is -11.5 kcal/mol. The same compound gave a pKd on APC W593A (ITC, 30 °C) of 6.40.

As a reminder, the pKd is −log10 of the Kd, conventionally taken in molar units.

For the origin of these results see PMC9402538, “Rational design of a sensitivity-enhanced tracer for discovering efficient APC–Asef inhibitors” (Nature Communications, 2022).
